Measured values from patent publication US12285397B2, “Use of (s)-3-amino-4-(difluoromethylenyl) cyclopent-1-ene-1-carboxylic acid and related compounds, (1S,3S)-3-amino-4-(difluoromethylidene) cyclopentane-1-carboxylic acid and vigabatrin in the treatment of developmental disorders” (Ovid Therapeutics Inc., priority 2018, dated 2025).

Test system: Fmr1 KO2 mice
Experiment: Open field repetitive behavior: counter revolutions (CCW), Fmr1 KO2 mice
Type: in vivo, mouse
Description: Mutant fmr1 knockout (KO) mice recapitulate the Fragile X syndrome (FXS) phenotype and represent a preclinical model for assessment of putative drug treatments. In this study three different mice models of FXS were used: Fmr1 KO1 is the original Fmr1 knockout animal that carries an insertion in exon 5. See, e.g., Bakker C E, et al., The Dutch-Belgian Fragile X Consortium, Fmr1 knockout mice: A model to study fragile X mental retardation. Cell. 1994; 78:23-33 It is a protein null, although Fmr1 mRNA is still present. It is backcrossed to the C57/B16 strain. Subsequently, these mice were bred into different background strains, such as the FVB inbred mouse strain. Fmr1 KO2 is a null allele at Fmr1 generated by deletion of the promoter and first exon of Fmr1. See, Mientjes, E J et al., The generation of a conditional Fmr1 knock out mouse model to study Fmrp function in vivo. Neurobiology of Disease (2006) 21(3): 549-555. It is both protein and mRNA null. Backcrossed to the C57/B16 strain. Genotyping was accomplished using TransnetXY Automated Genotyping (http://www.transnetyx.com/). TRANSNETYX, INC., 8110 Cordova Rd. Suite 119, Cordova, TN 38016, USA.
The mice were housed in plastic cages (35×30×12 cm), 5 in each and habituated to the animal facilities for at least a week before test. The room temperature (21±2° C.), relative humidity (55±5%), a 12-h light-dark cycle (lights on 7 a.m.-7 p.m.) and air exchange (16 times per h) were automatically controlled. The animals had free access to commercial food pellets and water. Testing was conducted during the light phase. Testing was conducted on Fmr1 knockout mice and their wild-type (WT) littermates. Ten mice per treatment group, 14 weeks of age, were used for behavioral experiments. Experiments were conducted in line with the requirements of the UK Animals (Scientific Procedures) Act, 1986.
Oral dosing was performed by using 1.5-in. curved, 20-gauge, stainless steel feeding needles with a 2.25-mm ball (Braintree Scientific, Braintree, MA). Each gavage treatment was given in 0.5% methyl cellulose (Methyl Cellulose M0512, Sigma-Aldrich, St Louis, MO) used as vehicle with or without treatment compounds. The same veterinarian, blinded to the treatment groups, performed the procedure, and documented animal reactions to oral gavage. Reactions considered to indicate stress were defined as excessive struggling during gavage or abnormal behavior after gavage (labored breathing, frozen stance, exaggerated jumping, shuddering, and hunched posture).
For experiments all mice were tested once in the same apparatus. Prior to testing, mice not in the study were placed in the apparatus for some minutes before the experiment. The apparatus was then cleaned with moist and dry tissues before testing each mouse. The aim was to create a low but constant background mouse odor for all experimental subjects. All experiments were conducted with the experimenters blind to genotype and drug treatment during all testing and data analysis. Separate investigators prepared and coded dosing solutions, allocated the mice to the study treatment groups, dosed the animals, and collected the behavioral data. Data were analyzed by one-way analysis of variance (ANOVA) followed by post-hoc comparisons where appropriate using Tukey's Multiple Comparison Test. Data are represented as the mean and standard error of the mean (SEM).
2. Open Field Repetitive Behaviors (stereotypies: anticlockwise circling (aka counter revolutions) (CCW) and self grooming). Fmr1 KO2 mice display the autism-like phenotypes of repetitive behaviors like CCW, self grooming and stereotypy that typically involves behaviors such as head bobbing. […]

Q: How did the “Open field counter revolutions (CCW), WT-Veh vs. KO2-Compound: Significant?” value (0.01 mg/Kg PO QD seven days) turn out when `N[C@H]1C=C(C(=O)O)CC1=C(F)F` [Compound, (S)-3-Amino-4-(difluoromethylenyl)cyclopent-1-ene-1-carboxylic acid] was run?
A: Yes

Q: And the “Open field counter revolutions (CCW), WT-Veh vs. KO2-Compound: Significant?” value (0.05 mg/Kg PO QD seven days)?
A: No

Q: And the “Open field counter revolutions (CCW), WT-Veh vs. KO2-Compound: Summary” value (0.05 mg/Kg PO QD seven days)?
A: ns

Q: And the “Open field counter revolutions (CCW), WT-Veh vs. KO2-Compound: Significant?” value (0.1 mg/Kg PO QD seven days)?
A: No

Q: And the “Open field counter revolutions (CCW), WT-Veh vs. KO2-Compound: Summary” value (0.1 mg/Kg PO QD seven days)?
A: ns

Q: What about the “Effect on CCW revolutions phenotype (FIG. 2)” value (0.05 and 0.1 mg/Kg) of the same compound?
A: rescued
